The target in the first assay is mitochondrial Complex I (NADH:ubiquinone oxidoreductase). Put plainly: MitoCheck Complex I activity assay (Cayman Chemicals #700930). Format: biochemical.
Settings: not given
From the text: Complex I (NADH:ubiquinone oxidoreductase or NADH dehydrogenase (ubiquinone)) is a complex of enzymes of the respiratory chains that catalyzes the transfer of electrons from NADH to coenzyme Q10 (CoQ10) located in the inner mitochondrial membrane. […] Cancer Medicine, 2013, 2(5): 611-624. […] Interference with mitochondrial function to reduce hypoxia-induced HIF-1 activity in tumors is indicated as a therapeutic approach to overcome chemo- and radiotherapy resistance of hypoxic tumors. Helbig et al. report BAY 87-2243 improves local tumor control after fractionated irradiation in a schedule-dependent manner in head and neck human xenografts. Radiation Oncology 2014, 9:207. Santidrian et al. report mitochondrial complex I activity and NAD+/NADH balance regulate breast cancer progression. J Clin Invest, 2013, 123(3):1068-81. See also Ellinghaus et al., Cancer Med, 2013, 2(5):611-624. Chang et al., Clin Cancer Res, 2015, 21(2):335-46; Fulda et al., Antioxid Redox Signal, 2011, 15:2937-2949; Wenner, J Cell Physiol, 2012, 227:450-456; Fulda et al., Nat Rev Drug Discov, 2010, 9:447-464.
It has been discovered that certain HIF inhibitors disclosed herein are also mitochondrial inhibitors. […] KCN1 induced acidification of media may be due to the consequence of its mitochondrial inhibiting activity. […]
As for `COc1ccc(S(=O)(=O)N(Cc2ccc3c(c2)C=CC(C)(C)O3)c2ccccc2)cc1OC` [KCN1], the 50% inhibitory concentration (IC50) (as a rule, the point on the concentration scale where inhibition reaches its midpoint) was approximately 15000 nM.

In a further assay the test system is LN229 cells. Put plainly: Toxicity to LN229 cells in the presence of galactose.
Settings: not given
It is filed as cell-based, human. From the text: To be metabolized, galactose has to be converted into glucose in an energy consuming process that cannot be balanced by glycolytic metabolism. […] KCN1 is toxic to LN229 cells in the presence of galactose. […] Thus, in certain embodiments, the disclosure contemplates administering compounds disclosed herein in combination with a restricted or low glucose diet optionally in combination with galactose.
For `COc1ccc(S(=O)(=O)N(Cc2ccc3c(c2)C=CC(C)(C)O3)c2ccccc2)cc1OC` [KCN1], the “toxicity to LN229 cells” value was “toxic”.

A further assay relates to LN229HRE-luc/lacZ cells (VEGF HRE, HIF-1 target). Put plainly: Inhibition of hypoxia-inducible gene expression driven by HRE-reporter construct (firefly luciferase) in glioma cells. Format: cell-based. Conditions: Homo sapiens, Glioma cell; firefly luciferase activity in LN229HRE-luc/LacZ cells, 1 hour pretreatment under normoxia, then hypoxia (1% O2); from dose-response curves. Here is the method:
Inhibition of Hypoxia-Inducible Gene Expression Driven by Exogenous HRE-Reporter Constructs in Glioma Cells
LN229HRE-luc/lacZ cells were generated by stably transfecting human LN229 glioma cells with a bidirectional reporter construct (pBIGL-V6R) in which the firefly luciferase and LacZ reporter genes are under the control of 6 head to tail tandem copies of the VEGF HRE (hypoxia-responsive element—endogenous HIF-1 target gene) in rightward orientation (clone LN229V6R#18; Hygro selection […]) as reported in Yin et al. Clinical Cancer Research, 2012, 1-11.
Cells were pretreated with different doses of test compounds or 1% DMSO (final concentration in media) vehicle control for 1 hour under normoxia (21% O2); then incubation continued under normoxia or hypoxia (1% O2) using a hypoxia incubator (Thermo Forma model 3130). Firefly luciferase activities in lysates of LN229HRE-luc/LacZ cells were measured with a Dual-Luciferase Reporter Assay System (Promega) in a 20/20 n Luminometer (Promega). The IC50 (μM) value for each individual compound was established from the dose-response curves.
Consider `COc1ccc(C(O)c2ccc3c(c2)OCCN3C)cc1OC` (stereo not shown) [29b], for which the IC50 was more than 5000 nM. As to `COc1ccc(C(O)c2ccc3ccccc3c2)cc1OC` (stereo not shown) [29c], the IC50 turned out to be 1200 nM. With `COc1ccc(C(O)c2ccc3c(c2)OCCO3)cc1OC` (stereo not shown) [29d], the IC50 worked out at 4180 nM. Still for that read-out and setting: the value for `COc1ccc(C(O)c2ccc3sc(C)cc3c2)cc1OC` (stereo not shown) [29e] was 1030 nM; that for `COc1ccc(C(O)c2ccc3sc(C)cc3c2)c(OC)c1` (stereo not shown) [29f] was more than 5000 nM. The same measure, in the same setting: in the case of `CCCCCCOc1ccc2cc(C(O)c3ccc(OC)c(OC)c3)ccc2c1` (stereo not shown) [32a] it was 1800 nM.

`CCCOc1ccc2cc(C(O)c3ccc(OC)c(OC)c3)ccc2c1` (stereo not shown) [32b]: the IC50 stood at 2950 nM.

On to `CCCCOc1ccc2cc(C(O)c3ccc(OC)c(OC)c3)ccc2c1` (stereo not shown) [32c], for which the concentration for half-maximal inhibition (IC50) is 3330 nM. On the same count and under the same terms, in the case of `COc1ccc(C(O)c2ccc3cc(OC(C)C)ccc3c2)cc1OC` (stereo not shown) [32d] it was 2620 nM. Still for that read-out and setting: the value for `COc1ccc(C(O)c2ccc(OC3CCOC3)cc2OC)cc1OC` (stereo not shown) [35a] was 4200 nM. The same measure, in the same setting: in the case of `CCCCCOc1ccc(C(O)c2ccc(OC)c(OC)c2)c(F)c1` (stereo not shown) [35b] it was 1300 nM.

Turning to `CCCCCOc1ccc(C(O)c2ccc(OC)c(OC)c2)c(C)c1` (stereo not shown) [35c], the IC50 turned out to be 430 nM.

Regarding `COc1ccc(C(O)c2ccc(OCC3CCN(C(=O)OC(C)(C)C)CC3)cc2C)cc1OC` (stereo not shown) [35d], the IC50 amounted to 330 nM.

Regarding `COc1ccc(C(O)c2ccc(OCCC3CCN(C(=O)OC(C)(C)C)CC3)cc2C)cc1OC` (stereo not shown) [35e, Tert-butyl 4-(2-(4-((3,4-dimethoxyphenyl)(hydroxy)methyl)-3-methylphenoxy)ethyl)piperidine-1-carboxylate], the half-maximal inhibitory concentration (IC50) worked out at 270 nM.

As for `COc1cc(C(O)c2ccc(OCC3CCN(C(=O)OC(C)(C)C)CC3)cc2C)cc(OC)c1OC` (stereo not shown) [35f], the IC50 was 270 nM. Still for that read-out and setting: the value for `COc1cc(C(O)c2ccc(OCCC3CCN(C(=O)OC(C)(C)C)CC3)cc2C)cc(OC)c1OC` (stereo not shown) [35g, Tert-butyl 4-(2-(4-(hydroxy(3,4,5-trimethoxyphenyl)methyl)-3-methylphenoxy)ethyl)piperidine-1-carboxylate] was 270 nM. Same read-out and setting: the value for `COc1ccc(C(=O)c2ccc(C[C@H]3CCOC3)cc2)cc1OC` [36c] was more than 5000 nM; that for `COc1ccc(C(=O)c2ccc(N3CCOCC3)cc2)cc1OC` [36d] was more than 5000 nM. Still for that read-out and setting: in the case of `COc1ccc(C(=O)c2ccc3c(c2)C=CC(C)(C)O3)cc1OC` [36e] it was more than 5000 nM. As to `COc1ccc(C(=O)c2cccc(COC3CCN(C(=O)OC(C)(C)C)CC3)c2)cc1OC` [36f], the IC50 was more than 5000 nM. Still for that read-out and setting: in the case of `COc1ccc(C(=O)c2ccc(COC3CCN(C(=O)OC(C)(C)C)CC3)cc2)cc1OC` [36g] it was 4500 nM; in that of `COc1ccc(C(=O)c2ccc3c(n2)C=CC(C)(C)O3)cc1OC` [36h], more than 5000 nM.

The subject of a further assay is cell culture media. Put plainly: Acidification of cell culture media (lactate production). Conditions: due to increased lactate production. It is filed as cell-based. From the text:
It has been discovered that certain HIF inhibitors disclosed herein are also mitochondrial inhibitors. […] KCN1 induced acidification of media may be due to the consequence of its mitochondrial inhibiting activity. Inhibiting the mitochondrial complex I interferes with the normal functions of the electron transport chain. This in effect can damage DNA and specific components of the mitochondria which leads to cell death through the generation of reactive oxygen species.
`COc1ccc(S(=O)(=O)N(Cc2ccc3c(c2)C=CC(C)(C)O3)c2ccccc2)cc1OC` [KCN1]: the “acidification of cell culture media” value is on record as “strongly acidifies cell culture media”.

In a further assay the test system is HIF-1α.
Assay: not given
Conditions: cited from earlier work.
Turning to `Cc1cc(-c2nc(-c3ccc(OC(F)(F)F)cc3)no2)nn1Cc1ccnc(N2CCN(C3CC3)CC2)c1` [BAY 87-2243], the HIF-1α inhibition result is “inhibits HIF-1α”.

The test system of another assay is H460 xenograft.
Assay: not given
Conditions: H460 xenograft model; cited from earlier work.
Take `Cc1cc(-c2nc(-c3ccc(OC(F)(F)F)cc3)no2)nn1Cc1ccnc(N2CCN(C3CC3)CC2)c1` [BAY 87-2243]: the “antitumor activity in vivo” value is reported as “Antitumor activity of BAY 87-2243 in vivo was demonstrated”.

The next assay relates to mitochondrial complex I.
Assay: not given
Conditions: cited from earlier work.
On to `Cc1cc(-c2nc(-c3ccc(OC(F)(F)F)cc3)no2)nn1Cc1ccnc(N2CCN(C3CC3)CC2)c1` [BAY 87-2243], for which the “mitochondrial complex I activity inhibition” value is “inhibits mitochondrial complex I activity”.
